Results taken from patent US11701364B2, “Agonists of stimulator of interferon genes sting” (The Scripps Research Institute, priority 2018, dated 2023).
pEC50: −log10 of the molar value.

These compounds were tested against T1, STING (Stimulator of Interferon Genes) (Homo sapiens, UniProt Q86WV6, G230A/H232R/R293Q/R71H) (assay: ISG-LUC activation assay (ISRE-Luciferase assay in THP-1 Lucia ISG reporter cells)). Settings: THP-1 Lucia ISG cells, 24 hours, luciferase reporter; read-out: ISG-LUC activation assay (EC50).
T1 construct: host or cells: THP-1-Lucia ISG cells (human monocytic line)
T1 sequence (Q86WV6 whole entry R71H/G230A/H232R/R293Q): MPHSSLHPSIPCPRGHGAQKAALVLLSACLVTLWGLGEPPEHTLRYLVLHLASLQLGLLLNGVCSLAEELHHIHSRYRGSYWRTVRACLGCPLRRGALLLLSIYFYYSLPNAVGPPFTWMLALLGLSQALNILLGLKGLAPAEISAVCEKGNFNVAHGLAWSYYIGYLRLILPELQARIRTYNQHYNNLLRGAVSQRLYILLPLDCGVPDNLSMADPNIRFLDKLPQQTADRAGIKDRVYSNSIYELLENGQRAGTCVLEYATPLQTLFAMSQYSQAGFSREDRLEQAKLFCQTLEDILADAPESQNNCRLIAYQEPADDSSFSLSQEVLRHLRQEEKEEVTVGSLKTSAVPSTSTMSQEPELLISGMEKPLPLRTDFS
Format: cell-based
Description: This has been established using a primary assay involving a human THP-1 cell line carrying an IRF-inducible reporter with 5 copies of the IFN signaling response element. Counter screens, involving alternative reporter constructs, rodent cell-based assays, as well as cGAS and STING knock-out cell lines, are used to eliminate luciferase artifacts and ensure human-rodent cross species reactivity, as well as pathway selectivity. Biochemical assays, involving cGAS enzymatic activity and STING protein binding assays, are used to identify the specific target of identified hits.
THP-1 Lucia ISG cells were resuspended in low-serum growth media (2% FBS) at a density of 5×10^5 cells/ml and treated with test article or vehicle (DMSO). 50 μL of cells were seeded into each well of a 384-well white greiner plates and incubated for 24 hours. To evaluate expression of the luciferase reporter, 30 μl of Quanti-luc (Invivogen) detection reagent was added to each well and luminescence was read using an Envision plate reader (Perkin Elmer) set with an integration time of 0.1 seconds.

Compared with `O=C(Nc1ccccc1C(O)(C(F)(F)F)C(F)(F)F)c1ccc(-n2ccnc2)nn1` [Compound 1], `CCOC(=O)c1ccccc1NC(=O)c1ccc(-n2ccnc2)nn1` [Compound 64] is 0.20 log units lower in pEC50: 6.23 for the first, 6.03 for the second. The first is the more potent here.

Going from `COC(=O)c1ccc(F)c(C)c1NC(=O)c1ccc(-n2ccnc2)nn1` [Compound 2] to `COC(=O)c1ccc(C)c(C)c1NC(=O)c1ccc(-n2ccnc2)nn1` [Compound 6], the pEC50 rises from 5.33 to about 5.56 (0.23 log units). The second is the more potent here.

Going from `COC(=O)c1c(F)ccc(F)c1NC(=O)c1ccc(-n2ccnc2)nn1` [Compound 3] to `COC(=O)c1ccc(F)c(F)c1NC(=O)c1ccc(-n2ccnc2)nn1` [Compound 18], the pEC50 rises from 4.99 to 6.25 (1.26 log units). The second is the more potent here.

Going from `O=C(Nc1ccccc1C(=O)OC1CCC1)c1ccc(-n2ccnc2)nn1` [Compound 4] to `CC(C)COC(=O)c1ccccc1NC(=O)c1ccc(-n2ccnc2)nn1` [Compound 22], the pEC50 rises from 5.68 to 6.05 (0.37 log units).

Going from `COC(=O)c1ncccc1NC(=O)c1ccc(-n2ccnc2)nn1` [Compound 5] to `COC(=O)c1ncc(F)cc1NC(=O)c1ccc(-n2ccnc2)nn1` [Compound 69], the pEC50 falls from 5.91 to 5.56 (0.35 log units). The first is the more potent here.

Going from `Cc1noc(-c2ccccc2NC(=O)c2ccc(-n3ccnc3)nn2)n1` [Compound 7] to `O=C(Nc1cc2ccccc2cc1C(=O)O)c1ccc(-n2ccnc2)nn1` [Compound 78], the pEC50 rises from under 4.30 to 5.35.

Going from `COC(=O)c1ccncc1NC(=O)c1ccc(-n2ccnc2)nn1` [Compound 8] to `COC(=O)c1ccc(C)cc1NC(=O)c1ccc(-n2ccnc2)nn1` [Compound 15], the pEC50 rises from 5.59 to 6.53 (0.94 log units).

First: Cc1cc2nc(-c3ccc(-n4ccnc4)nn3)oc(=O)c2cc1C [Compound 9]
Second: Cc1cc2c(=O)oc(-c3ccc(-n4ccnc4)nn3)nc2cc1F [Compound 33]
The pEC50 of the first is lower: 6.79 for the first, over 7.71 for the second. The second is the more potent here.

Going from `COC(=O)c1cc(NC(=O)c2ccc(-n3ccnc3)nn2)cc(F)c1F` [Compound 10] to `COC(=O)c1cc(F)cc(F)c1NC(=O)c1ccc(-n2ccnc2)nn1` [Compound 19], the pEC50 falls from 6.33 to 6.09 (0.24 log units).

`COC(=O)c1cc(C)c(C)cc1NC(=O)c1ccc(-n2ccnc2)nn1` [Compound 11] and `COC(=O)c1cc(F)c(C)cc1NC(=O)c1ccc(-n2ccnc2)nn1` [Compound 21] are within 0.2 log units of each other in pEC50: 6.99 for the first, 7.04 for the second.

Compared with `COC(=O)c1ccc(C#N)cc1NC(=O)c1ccc(-n2ccnc2)nn1` [Compound 12], `COC(=O)c1cc(C#N)ccc1NC(=O)c1ccc(-n2ccnc2)nn1` [Compound 49] is 0.57 log units lower in pEC50: 6.80 for the first, 6.23 for the second. The first is the more potent here.

Compared with `COC(=O)c1cc(F)ccc1NC(=O)c1ccc(-n2ccnc2)nn1` [Compound 13], `COC(=O)c1ccc(F)cc1NC(=O)c1ccc(-n2ccnc2)nn1` [Compound 16] is 0.44 log units lower in pEC50: 6.60 for the first, 6.16 for the second.

`COC(=O)c1cc(OC)ccc1NC(=O)c1ccc(-n2ccnc2)nn1` [Compound 14] and `CCc1ccc(NC(=O)c2ccc(-n3ccnc3)nn2)c(C(=O)OC)c1` [Compound 20] are within 0.2 log units of each other in pEC50: 6.54 for the first, 6.38 for the second.

`COC(=O)c1ccc(Cl)cc1NC(=O)c1ccc(-n2ccnc2)nn1` [Compound 17] and `COC(=O)c1ccc(C2CC2)cc1NC(=O)c1ccc(-n2ccnc2)nn1` [Compound 31] are within 0.2 log units of each other in pEC50: 6.51 for the first, 6.69 for the second.

Compared with `COC(=O)c1cc2ccccc2cc1NC(=O)c1ccc(-n2ccnc2)nn1` [Compound 23], `COC(=O)c1cc2cnn(C)c2cc1NC(=O)c1ccc(-n2ccnc2)nn1` [Compound 45] is 0.35 log units lower in pEC50: 7.25 for the first, 6.90 for the second. The first is the more potent here.

First: CC(C)OC(=O)c1cc(F)c(F)cc1NC(=O)c1ccc(-n2ccnc2)nn1 [Compound 24]
Second: NC(=O)c1cc(F)c(F)cc1NC(=O)c1ccc(-n2ccnc2)nn1 [Compound 63]
The pEC50 of the first is 0.55 log units higher: 6.13 for the first, 5.58 for the second. The first is the more potent here.

`CC(C)OC(=O)c1cc(F)ccc1NC(=O)c1ccc(-n2ccnc2)nn1` [Compound 25] and `CCc1ccc(NC(=O)c2ccc(-n3ccnc3)nn2)c(C(=O)OC(C)C)c1` [Compound 65] are within 0.2 log units of each other in pEC50: 6.09 for the first, 5.94 for the second.

`COC(=O)c1cc(C(F)(F)F)ccc1NC(=O)c1ccc(-n2ccnc2)nn1` [Compound 26] and `COC(=O)c1ccc(C(F)(F)F)cc1NC(=O)c1ccc(-n2ccnc2)nn1` [Compound 27] are within 0.2 log units of each other in pEC50: 6.94 for the first, 6.87 for the second.

`COC(=O)c1cc(OC)c(F)cc1NC(=O)c1ccc(-n2ccnc2)nn1` [Compound 28] and `COC(=O)c1cc(F)c(OC)cc1NC(=O)c1ccc(-n2ccnc2)nn1` [Compound 52] are within 0.2 log units of each other in pEC50: 7.02 for the first, 7.13 for the second.

First: O=c1oc(-c2ccc(-n3ccnc3)nn2)nc2cc(F)c(F)cc12 [Compound 29]
Second: O=c1oc(-c2ccc(-n3ccnc3)nn2)nc2cc(Cl)c(F)cc12 [Compound 36]
The pEC50 of the first is 0.54 log units lower: 6.85 for the first, 7.39 for the second. The second is the more potent here.

Compared with `CCOC(=O)c1nc(C)ccc1NC(=O)c1ccc(-n2ccnc2)nn1` [Compound 30], `COC(=O)c1nc(OC)ccc1NC(=O)c1ccc(-n2ccnc2)nn1` [Compound 74] is 0.96 log units lower in pEC50: 6.83 for the first, 5.87 for the second.

`COC(=O)c1cc(C2CC2)ccc1NC(=O)c1ccc(-n2ccnc2)nn1` [Compound 32] and `COC(=O)c1cc(F)c(C2CC2)cc1NC(=O)c1ccc(-n2ccnc2)nn1` [Compound 56] are within 0.2 log units of each other in pEC50: 6.45 for the first, 6.52 for the second.

Going from `COC(=O)c1cc(Cl)c(Cl)cc1NC(=O)c1ccc(-n2ccnc2)nn1` [Compound 34] to `COC(=O)c1cc(C)c(Cl)cc1NC(=O)c1ccc(-n2ccnc2)nn1` [Compound 61], the pEC50 falls from 7.14 to 6.91 (0.23 log units). The first is the more potent here.

Going from `O=c1oc(-c2ccc(-n3ccnc3)nn2)nc2cc(Cl)c(Cl)cc12` [Compound 35] to `Cc1cc2nc(-c3ccc(-n4ccnc4)nn3)oc(=O)c2cc1F` [Compound 39], the pEC50 rises from 7.21 to 7.51 (0.30 log units). The second is the more potent here.

Compared with `N#Cc1ccc2c(=O)oc(-c3ccc(-n4ccnc4)nn3)nc2c1` [Compound 37], `COc1ccc2c(=O)oc(-c3ccc(-n4ccnc4)nn3)nc2c1` [Compound 38] is 0.47 log units lower in pEC50: 6.78 for the first, 6.31 for the second. The first is the more potent here.

Going from `COc1ccc2nc(-c3ccc(-n4ccnc4)nn3)oc(=O)c2c1` [Compound 40] to `O=c1oc(-c2ccc(-n3ccnc3)nn2)nc2ccc(OC(F)(F)F)cc12` [Compound 41], the pEC50 rises from 6.16 to 6.75 (0.59 log units). The second is the more potent here.

`O=c1oc(-c2ccc(-n3ccnc3)nn2)nc2cc(F)c(OC(F)(F)F)cc12` [Compound 42] and `COC(=O)c1cc(OC(F)(F)F)c(F)cc1NC(=O)c1ccc(-n2ccnc2)nn1` [Compound 44] are within 0.2 log units of each other in pEC50: 6.43 for the first, 6.24 for the second.

Compared with `COC(=O)c1nc(Br)c(F)cc1NC(=O)c1ccc(-n2ccnc2)nn1` [Compound 43], `COC(=O)c1cc(F)c(Br)cc1NC(=O)c1ccc(-n2ccnc2)nn1` [Compound 58] is 0.37 log units higher in pEC50: 6.85 for the first, 7.22 for the second. The second is the more potent here.

Compared with `Cc1cc(NC(=O)c2ccc(-n3ccnc3)nn2)c(C(=O)OCCCCO)cc1C` [Compound 46], `COC(=O)c1cc(C)c(F)cc1NC(=O)c1ccc(-n2ccnc2)nn1` [Compound 50] is 0.46 log units higher in pEC50: 6.38 for the first, 6.84 for the second.

Going from `COC(=O)c1cc(Cl)c(C)nc1NC(=O)c1ccc(-n2ccnc2)nn1` [Compound 47] to `COC(=O)c1cc(Cl)c(Br)c(F)c1NC(=O)c1ccc(-n2ccnc2)nn1` [Compound 60], the pEC50 rises from 6.55 to 7.21 (0.66 log units).

Going from `COC(=O)c1cc(C(F)(F)F)cc(F)c1NC(=O)c1ccc(-n2ccnc2)nn1` [Compound 48] to `COC(=O)c1cc(C(F)(F)F)c(F)cc1NC(=O)c1ccc(-n2ccnc2)nn1` [Compound 70], the pEC50 falls from 6.32 to 5.76 (0.56 log units). The first is the more potent here.

Going from `COC(=O)c1c(F)cc(F)cc1NC(=O)c1ccc(-n2ccnc2)nn1` [Compound 51] to `COC(=O)c1c(F)cccc1NC(=O)c1ccc(-n2ccnc2)nn1` [Compound 72], the pEC50 falls from 6.70 to 5.78 (0.92 log units).

First: O=C(Nc1cc(Cl)c(F)cc1C(=O)O)c1ccc(-n2ccnc2)nn1 [Compound 53]
Second: Cc1cc(NC(=O)c2ccc(-n3ccnc3)nn2)c(C(=O)O)cc1F [Compound 81]
The pEC50 of the first is 0.64 log units higher: about 6.20 for the first, 5.56 for the second. The first is the more potent here.

Compared with `COc1cc(NC(=O)c2ccc(-n3ccnc3)nn2)c(C(=O)O)cc1F` [Compound 54], `COc1ccc(C(=O)O)c(NC(=O)c2ccc(-n3ccnc3)nn2)c1` [Compound 62] is 0.77 log units lower in pEC50: 6.61 for the first, 5.84 for the second.

First: COC(=O)c1cc(C#N)c(F)cc1NC(=O)c1ccc(-n2ccnc2)nn1 [Compound 55]
Second: COC(=O)c1cc(C#N)cc(F)c1NC(=O)c1ccc(-n2ccnc2)nn1 [Compound 73]
The pEC50 of the first is 1.03 log units higher: 6.66 for the first, 5.63 for the second. The first is the more potent here.

Going from `COC(=O)c1cc(OC)c(Cl)cc1NC(=O)c1ccc(-n2ccnc2)nn1` [Compound 57] to `COC(=O)c1cc(F)c(OC)c(F)c1NC(=O)c1ccc(-n2ccnc2)nn1` [Compound 59], the pEC50 falls from over 7.71 to 6.11. The first is the more potent here.

First: Cc1ccc(C(=O)OC(C)C)c(NC(=O)c2ccc(-n3ccnc3)nn2)c1 [Compound 66]
Second: Cc1ccc(C(=O)O)c(NC(=O)c2ccc(-n3ccnc3)nn2)c1 [Compound 82]
The pEC50 of the first is 1.10 log units higher: 6.29 for the first, 5.19 for the second. The first is the more potent here.

Compared with `CCOC(=O)C1=C(NC(=O)c2ccc(-n3ccnc3)nn2)CCC(C)C1` (centres unmarked) [Compound 67], `COC(=O)C1=C(NC(=O)c2ccc(-n3ccnc3)nn2)CC(C)(C)C1` [Compound 77] is lower in pEC50: 5.53 for the first, under 4.30 for the second. The first is the more potent here.

Compared with `CCN(CC)CCOC(=O)c1cc(F)c(F)cc1NC(=O)c1ccc(-n2ccnc2)nn1` [Compound 68], `O=C(Nc1cc(F)c(C(F)(F)F)cc1C(=O)O)c1ccc(-n2ccnc2)nn1` [Compound 80] is 0.34 log units lower in pEC50: 5.74 for the first, 5.40 for the second. The first is the more potent here.

`COC(=O)c1nc(OC)ncc1NC(=O)c1ccc(-n2ccnc2)nn1` [Compound 71] and `COCC(=O)c1nc(Cl)ncc1NC(=O)c1ccc(-n2ccnc2)nn1` [Compound 75] are within 0.2 log units of each other in pEC50: 5.78 for the first, 5.90 for the second.

Compared with `COC(=O)c1cc(OC(F)(F)F)ccc1NC(=O)c1ccc(-n2ccnc2)nn1` [Compound 76], `CCc1ccc(NC(=O)c2ccc(-n3ccnc3)nn2)c(C(=O)O)c1` [Compound 79] is lower in pEC50: 6.24 for the first, under 4.70 for the second. The first is the more potent here.

In the case of `O=C(Nc1ccc(Cl)cc1C(=O)O)c1ccc(-n2ccnc2)nn1` [Compound 83], the pEC50 was under 4.70.
